Measurements as given in the kinase profiling compilation of Christmann-Franck et al. (2016).

Experiments:
Test in all cases: radiometric filter-binding kinase assay, Kinase HotSpot
Conditions in all cases: compound 0.5 µM; ATP 10 µM
[1] = biological target: EPHB2 (human) (UniProt P29323)
[2] = biological target: STK3 (human) (UniProt Q13188)
[3] = biological target: DYRK3 (human) (UniProt O43781)
[4] = biological target: TYK2 JH1 catalytic (human) (UniProt P29597)
[5] = biological target: EPHA4 (human) (UniProt P54764)
[6] = biological target: IRAK1 (human) (UniProt P51617)
[7] = biological target: CDK6 CCND3 (human) (UniProt P30281+Q00534)
[8] = biological target: ROCK1 (human) (UniProt Q13464)
Sequence of ROCK1 (human) (Q13464 whole entry, looked up): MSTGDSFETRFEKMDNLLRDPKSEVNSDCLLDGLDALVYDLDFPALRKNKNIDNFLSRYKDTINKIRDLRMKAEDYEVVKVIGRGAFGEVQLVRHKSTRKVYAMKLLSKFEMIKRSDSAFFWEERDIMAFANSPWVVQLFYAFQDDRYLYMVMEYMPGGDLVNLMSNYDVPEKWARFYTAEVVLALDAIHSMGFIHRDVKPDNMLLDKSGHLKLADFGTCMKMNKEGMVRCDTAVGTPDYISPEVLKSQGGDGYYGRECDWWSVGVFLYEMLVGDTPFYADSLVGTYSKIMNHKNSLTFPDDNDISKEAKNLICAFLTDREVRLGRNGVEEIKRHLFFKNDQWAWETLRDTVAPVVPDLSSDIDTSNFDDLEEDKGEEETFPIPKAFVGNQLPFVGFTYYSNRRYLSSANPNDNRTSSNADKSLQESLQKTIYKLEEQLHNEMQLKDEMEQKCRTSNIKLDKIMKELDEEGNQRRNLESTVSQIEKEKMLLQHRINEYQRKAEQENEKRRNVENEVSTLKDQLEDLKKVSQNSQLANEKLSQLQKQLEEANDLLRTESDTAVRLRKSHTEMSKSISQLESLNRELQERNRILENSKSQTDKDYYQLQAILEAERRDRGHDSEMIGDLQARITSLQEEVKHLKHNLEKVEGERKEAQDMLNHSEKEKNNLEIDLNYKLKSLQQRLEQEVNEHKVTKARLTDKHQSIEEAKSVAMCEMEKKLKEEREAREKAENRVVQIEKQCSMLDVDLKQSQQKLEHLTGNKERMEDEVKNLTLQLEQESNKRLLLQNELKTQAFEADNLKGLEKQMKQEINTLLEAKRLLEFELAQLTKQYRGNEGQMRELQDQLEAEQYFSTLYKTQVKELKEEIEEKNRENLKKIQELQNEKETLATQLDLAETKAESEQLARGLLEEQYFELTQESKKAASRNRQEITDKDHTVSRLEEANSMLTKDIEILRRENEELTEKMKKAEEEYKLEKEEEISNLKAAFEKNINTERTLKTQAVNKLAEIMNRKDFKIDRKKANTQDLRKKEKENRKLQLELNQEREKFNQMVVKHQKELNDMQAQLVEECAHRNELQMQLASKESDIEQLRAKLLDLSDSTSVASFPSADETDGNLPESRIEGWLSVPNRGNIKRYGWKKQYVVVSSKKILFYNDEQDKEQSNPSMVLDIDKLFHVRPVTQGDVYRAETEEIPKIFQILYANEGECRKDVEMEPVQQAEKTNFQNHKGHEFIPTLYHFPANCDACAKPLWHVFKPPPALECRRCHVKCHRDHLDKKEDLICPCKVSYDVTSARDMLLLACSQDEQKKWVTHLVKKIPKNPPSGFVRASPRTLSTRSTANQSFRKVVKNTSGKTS

[9] = biological target: EPHB4 (human) (UniProt P54760)
[10] = biological target: ACVR1B (human) (UniProt P36896)
Sequence of ACVR1B (human) (P36896 whole entry, looked up): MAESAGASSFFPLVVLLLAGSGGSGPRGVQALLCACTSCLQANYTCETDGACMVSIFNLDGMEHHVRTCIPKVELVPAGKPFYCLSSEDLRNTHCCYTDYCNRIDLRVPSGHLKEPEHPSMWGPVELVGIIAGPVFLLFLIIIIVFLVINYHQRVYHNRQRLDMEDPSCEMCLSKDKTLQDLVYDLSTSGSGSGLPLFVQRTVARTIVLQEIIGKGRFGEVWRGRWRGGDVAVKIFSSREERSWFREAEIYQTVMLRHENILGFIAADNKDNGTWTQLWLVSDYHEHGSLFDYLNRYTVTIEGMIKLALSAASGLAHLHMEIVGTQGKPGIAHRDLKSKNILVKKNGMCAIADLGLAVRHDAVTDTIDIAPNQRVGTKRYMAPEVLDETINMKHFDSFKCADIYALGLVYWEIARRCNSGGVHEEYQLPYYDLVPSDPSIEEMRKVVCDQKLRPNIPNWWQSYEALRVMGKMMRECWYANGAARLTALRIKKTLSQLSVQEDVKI

[11] = biological target: TSSK2 (human) (UniProt Q96PF2)
[12] = biological target: RIPK2 (human) (UniProt O43353)
[13] = biological target: STK39 (human) (UniProt Q9UEW8)
[14] = biological target: CSNK1A1 (human) (UniProt P48729)
Sequence of CSNK1A1 (human) (P48729 whole entry, looked up): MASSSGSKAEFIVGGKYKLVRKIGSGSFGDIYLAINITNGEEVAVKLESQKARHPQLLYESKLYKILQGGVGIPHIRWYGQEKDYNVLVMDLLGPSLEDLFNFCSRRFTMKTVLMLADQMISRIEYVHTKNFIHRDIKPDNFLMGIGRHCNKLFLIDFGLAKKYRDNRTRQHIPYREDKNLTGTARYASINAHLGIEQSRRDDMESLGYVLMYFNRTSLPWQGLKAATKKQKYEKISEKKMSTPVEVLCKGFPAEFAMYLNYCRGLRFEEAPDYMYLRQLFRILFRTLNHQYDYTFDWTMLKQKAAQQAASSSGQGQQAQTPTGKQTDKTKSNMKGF

[15] = biological target: BRSK1 (human) (UniProt Q8TDC3)
[16] = biological target: CDK2 CCNE1 (human) (UniProt P24941+P24864)
[17] = biological target: STK33 (human) (UniProt Q9BYT3)
[18] = biological target: DAPK2 (human) (UniProt Q9UIK4)
[19] = biological target: PRKD1 (human) (UniProt Q15139)
[20] = biological target: CSNK1G3 (human) (UniProt Q9Y6M4)
[21] = biological target: PRKCI (human) (UniProt P41743)
[22] = biological target: CDK9 CCNT1 (human) (UniProt P50750+O60563)
[23] = biological target: MAP3K3 (human) (UniProt Q99759)
[24] = biological target: CLK3 (human) (UniProt P49761)
[25] = biological target: TNK2 (human) (UniProt Q07912)
[26] = biological target: GRK6 (human) (UniProt P43250)
[27] = biological target: PIM2 (human) (UniProt Q9P1W9)
Sequence of PIM2 (human) (Q9P1W9 whole entry, looked up): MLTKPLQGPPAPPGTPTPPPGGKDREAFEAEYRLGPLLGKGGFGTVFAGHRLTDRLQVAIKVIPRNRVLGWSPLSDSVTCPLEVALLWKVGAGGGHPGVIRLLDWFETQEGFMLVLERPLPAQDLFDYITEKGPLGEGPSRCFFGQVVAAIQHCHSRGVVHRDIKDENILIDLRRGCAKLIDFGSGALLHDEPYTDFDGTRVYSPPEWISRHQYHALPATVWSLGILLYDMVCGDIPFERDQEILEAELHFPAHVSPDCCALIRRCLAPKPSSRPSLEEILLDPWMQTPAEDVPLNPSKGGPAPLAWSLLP

[28] = biological target: MAP3K8 (human) (UniProt P41279)
[29] = biological target: PRKX (human) (UniProt P51817)
[30] = biological target: JAK3 JH1 JH2 (human) (UniProt P52333)
[31] = biological target: DAPK1 (human) (UniProt P53355)
[32] = biological target: ULK2 (human) (UniProt Q8IYT8)
Sequence of ULK2 (human) (Q8IYT8 whole entry, looked up): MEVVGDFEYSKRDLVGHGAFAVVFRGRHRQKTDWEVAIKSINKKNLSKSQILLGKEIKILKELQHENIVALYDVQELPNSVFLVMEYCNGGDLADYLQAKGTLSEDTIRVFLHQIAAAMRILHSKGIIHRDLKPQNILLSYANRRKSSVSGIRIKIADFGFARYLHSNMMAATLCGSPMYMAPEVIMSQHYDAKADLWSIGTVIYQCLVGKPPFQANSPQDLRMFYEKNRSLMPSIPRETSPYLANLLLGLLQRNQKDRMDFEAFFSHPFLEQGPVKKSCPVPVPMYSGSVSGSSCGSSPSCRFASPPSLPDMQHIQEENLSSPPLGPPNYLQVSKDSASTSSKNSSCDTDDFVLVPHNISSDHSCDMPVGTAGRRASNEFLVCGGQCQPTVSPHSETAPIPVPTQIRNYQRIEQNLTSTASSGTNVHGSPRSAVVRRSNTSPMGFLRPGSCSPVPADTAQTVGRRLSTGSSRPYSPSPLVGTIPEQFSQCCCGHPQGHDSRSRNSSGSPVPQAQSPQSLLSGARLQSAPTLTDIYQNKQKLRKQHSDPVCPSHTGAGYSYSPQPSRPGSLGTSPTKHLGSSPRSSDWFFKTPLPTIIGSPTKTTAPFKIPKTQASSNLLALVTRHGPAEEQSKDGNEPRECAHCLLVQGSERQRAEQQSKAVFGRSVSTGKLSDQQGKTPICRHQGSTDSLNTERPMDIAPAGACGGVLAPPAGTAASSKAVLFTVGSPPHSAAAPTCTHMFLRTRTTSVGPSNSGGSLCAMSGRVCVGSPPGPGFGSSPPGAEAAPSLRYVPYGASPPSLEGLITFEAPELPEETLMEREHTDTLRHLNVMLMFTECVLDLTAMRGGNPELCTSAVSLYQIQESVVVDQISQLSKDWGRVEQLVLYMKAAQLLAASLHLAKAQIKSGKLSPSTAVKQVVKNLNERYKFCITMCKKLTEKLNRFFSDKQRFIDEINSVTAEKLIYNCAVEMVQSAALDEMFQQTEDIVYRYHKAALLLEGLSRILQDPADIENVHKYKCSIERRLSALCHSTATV

[33] = biological target: BMX (human) (UniProt P51813)
Sequence of BMX (human) (P51813 whole entry, looked up): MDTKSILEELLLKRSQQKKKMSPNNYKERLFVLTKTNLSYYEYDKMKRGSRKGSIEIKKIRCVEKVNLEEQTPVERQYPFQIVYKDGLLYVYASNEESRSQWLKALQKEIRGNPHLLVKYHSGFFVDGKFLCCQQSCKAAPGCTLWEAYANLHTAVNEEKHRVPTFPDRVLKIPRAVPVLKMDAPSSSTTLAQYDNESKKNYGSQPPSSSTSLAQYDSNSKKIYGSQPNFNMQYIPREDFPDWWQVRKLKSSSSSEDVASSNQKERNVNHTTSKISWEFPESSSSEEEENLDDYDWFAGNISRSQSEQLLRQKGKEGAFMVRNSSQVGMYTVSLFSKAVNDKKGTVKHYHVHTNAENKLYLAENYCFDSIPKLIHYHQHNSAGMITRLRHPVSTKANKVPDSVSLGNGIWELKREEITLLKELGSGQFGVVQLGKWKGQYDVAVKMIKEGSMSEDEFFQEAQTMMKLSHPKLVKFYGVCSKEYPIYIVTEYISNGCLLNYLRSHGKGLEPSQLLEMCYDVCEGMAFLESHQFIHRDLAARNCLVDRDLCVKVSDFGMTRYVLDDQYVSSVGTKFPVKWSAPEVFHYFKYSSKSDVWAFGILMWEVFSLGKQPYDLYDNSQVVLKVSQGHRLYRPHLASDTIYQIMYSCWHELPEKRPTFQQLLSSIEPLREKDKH

[34] = biological target: CDC42BPB (human) (UniProt Q9Y5S2)
[35] = biological target: MAP3K11 (human) (UniProt Q16584)
Sequence of MAP3K11 (human) (Q16584 whole entry, looked up): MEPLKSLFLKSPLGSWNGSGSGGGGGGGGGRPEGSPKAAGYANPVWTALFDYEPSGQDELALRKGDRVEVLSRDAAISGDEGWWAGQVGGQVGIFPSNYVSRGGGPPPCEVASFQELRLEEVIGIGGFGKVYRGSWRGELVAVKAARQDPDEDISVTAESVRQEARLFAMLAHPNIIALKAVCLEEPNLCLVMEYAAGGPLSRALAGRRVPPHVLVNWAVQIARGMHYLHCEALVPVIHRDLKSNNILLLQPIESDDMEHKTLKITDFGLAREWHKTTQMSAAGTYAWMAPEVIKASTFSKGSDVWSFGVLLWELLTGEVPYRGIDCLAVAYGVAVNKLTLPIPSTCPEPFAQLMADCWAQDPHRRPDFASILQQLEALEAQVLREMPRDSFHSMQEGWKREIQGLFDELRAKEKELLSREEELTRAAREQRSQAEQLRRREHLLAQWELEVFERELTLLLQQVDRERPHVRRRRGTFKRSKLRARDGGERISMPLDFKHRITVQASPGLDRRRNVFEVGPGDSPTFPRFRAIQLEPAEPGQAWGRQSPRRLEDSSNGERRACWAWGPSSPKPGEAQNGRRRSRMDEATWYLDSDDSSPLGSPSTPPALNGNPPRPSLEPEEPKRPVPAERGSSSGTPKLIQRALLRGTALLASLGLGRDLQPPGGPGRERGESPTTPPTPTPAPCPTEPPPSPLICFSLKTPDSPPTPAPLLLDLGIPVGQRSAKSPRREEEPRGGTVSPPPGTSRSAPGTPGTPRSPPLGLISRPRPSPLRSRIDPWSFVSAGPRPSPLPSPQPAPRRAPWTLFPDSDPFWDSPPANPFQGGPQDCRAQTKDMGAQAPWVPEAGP

[36] = biological target: CAMK2G (human) (UniProt Q13555)
[37] = biological target: CLK1 (human) (UniProt P49759)
[38] = biological target: MARK3 (human) (UniProt P27448)
[39] = biological target: NTRK1 (human) (UniProt P04629)
[40] = biological target: PTK2B (human) (UniProt Q14289)
[41] = biological target: MAP4K4 (human) (UniProt O95819)
[42] = biological target: CLK4 (human) (UniProt Q9HAZ1)

## O=C(Nc1ccc(Cl)cc1)c1ccccc1NCc1ccncc1
[1]
  residual activity: 84.7%
[2]
  residual activity: 94.2%
[3]
  residual activity: 104%
[4]
  residual activity: 92.1%
[5]
  residual activity: 96.5%
[6]
  residual activity: 117%
[7]
  residual activity: 86.5%
[8]
  residual activity: 98.4%
[9]
  residual activity: 89.6%
[10]
  residual activity: 95.8%
[11]
  residual activity: 86.3%
[12]
  residual activity: 82.9%
[13]
  residual activity: 94.7%
[14]
  residual activity: 88.1%
[15]
  residual activity: 94%
[16]
  residual activity: 94.3%
[17]
  residual activity: 86.4%
[18]
  residual activity: 98.4%
[19]
  residual activity: 93.2%
[20]
  residual activity: 105%
[21]
  residual activity: 98.7%
[22]
  residual activity: 81.9%
[23]
  residual activity: 96.2%
[24]
  residual activity: 98.1%
[25]
  residual activity: 99.3%
[26]
  residual activity: 101%
[27]
  residual activity: 99.5%
[28]
  residual activity: 105%
[29]
  residual activity: 90.5%
[30]
  residual activity: 87.8%
[31]
  residual activity: 99.9%
[32]
  residual activity: 104%
[33]
  residual activity: 90.5%
[34]
  residual activity: 79.9%
[35]
  residual activity: 89%
[36]
  residual activity: 89.2%
[37]
  residual activity: 102%
[38]
  residual activity: 93.1%
[39]
  residual activity: 95.5%
[40]
  residual activity: 89.3%
[41]
  residual activity: 88.7%
[42]
  residual activity: 107%
